Results taken from PMC5741663, “Antimicrobial peptide capsids of de novo design” (Nature Communications, 2017).
Values after ≈ are worked out from the molar mass of the structure shown. Like-named read-outs stand apart in the source and are kept apart here. Marks after values point to notes of the source that are not given here. Starred links: 1 amine or outer side, 2 acyl side, 3 side chain; linkers in the order of their positions; H or OH if unused. Positions of bridges follow the written chain, without caps; N, C: chain ends. Non-standard residues stand in square brackets, D forms with d. Residues, ends and D or L forms follow the SMILES beside them. Chains are numbered I, II in the order given. *: point of attachment. X1 = CC(=O)N[C@@H](CCCCN[*:3])C(=O)NCCC(=O)N[C@@H](CCCCN[*:2])C(=O)NCCC(=O)N[C@@H](CCCCN[*:1])C(N)=O; X2 = CC[C@H](C)CCCCC(=O)*; Orn = NCCC[C@H](N)C(=O)O; Dab = NCC[C@H](N)C(=O)O; βAla = NCCC(=O)O

How the values were obtained:
Format in all cases: cell-based
S. enterica (ATCC700720) = system: S. enterica (ATCC700720)
Experimental: (§1) MICs were determined by broth microdilution on different bacteria according to the Clinical and Laboratory Standards Institute. […] The absorbance was measured after peptide addition at 600 nm using a Victor 2 plate reader (Perkin-Elmer).

B. subtilis (ATCC6633) = system: B. subtilis (ATCC6633)
Experimental: (§2) MICs were determined by broth microdilution on different bacteria according to the Clinical and Laboratory Standards Institute. Typically, 100 μL of 0.5–1 × 10^6 CFU mL^–1 of each bacterium in Mueller Hinton media broth (Oxoid) were incubated in 96-well microtitre plates with 100 μL of serial two-fold dilutions of the peptides (from 100 to 0 μM) at 37 °C on a 3D orbital shaker. The absorbance was measured after peptide addition at 600 nm using a Victor 2 plate reader (Perkin-Elmer). MICs were defined as the lowest peptide concentration after 24 h at 37 °C.

E. coli (K12) = system: E. coli (K12)
Experimental: as §2

E. faecalis (OG1X) = system: E. faecalis (OG1X)
Experimental: as §2

[1] = system: P. aeruginosa (ATCC27853)
Experimental: as §2

S. aureus (ATCC6538) = system: S. aureus (ATCC6538)
Experimental: as §2

Human erythrocytes = assay: Haemolysis assay; details: 10% (vol/vol) human erythrocytes in PBS pH 7.2, 1 h at room temperature, absorbance 550 nm; triplicates
Experimental: Haemolysis was determined by incubating a 10% (vol/vol) suspension of human erythrocytes with peptides. Erythrocytes were rinsed four times in 10 mM phosphate buffer saline (PBS), pH 7.2, by repeated centrifugation and re-suspension (3 min at 3000×g). Erythrocytes were incubated at room temperature for 1 h in either deionised water (fully haemolysed control), PBS, or with peptide in PBS. After centrifugation at 10,000×g for 5 min, the supernatant was separated from the pellet, and the absorbance was measured at 550 nm. Absorbance of the suspension treated with deionised water defined complete haemolysis.

[2] = system: K. pneumoniae (NCTC 5055)
Experimental: as §1, with “(Perkin-Elmer). MICs were defined as the lowest peptide concentration after 24 h at 37 °C.” for “(Perkin-Elmer).”

[3] = S. enterica (ATCC700720), Mueller Hinton broth, 0.5–1 × 10^6 CFU mL–1, 24 h at 37 °C, absorbance 600 nm, total peptide concentration, triplicates

In the case of CCCCCCCCCC(=O)N[C@@H](Cc1c[nH]c2ccccc12)C(=O)N[C@H](CC(N)=O)C(=O)N[C@@H](CC(=O)O)C(=O)N[C@@H]1C(=O)NCC(=O)N[C@@H](CCCN)C(=O)N[C@@H](CC(=O)O)C(=O)N[C@H](C)C(=O)N[C@@H](CC(=O)O)C(=O)NCC(=O)N[C@H](CO)C(=O)N[C@@H]([C@H](C)CC(=O)O)C(=O)N[C@@H](CC(=O)c2ccccc2N)C(=O)O[C@@H]1C [Daptomycin], the Minimum inhibitory concentrations (S. enterica (ATCC700720); [3]) is reported as >50 µM, the Minimum inhibitory concentrations (B. subtilis (ATCC6633); ATCC6633, 24 h) is reported as <8 µM and the Minimum inhibitory concentrations (E. coli (K12); K12, 24 h) is reported as >100 µM. For the same molecule, the Minimum inhibitory concentrations (E. faecalis (OG1X); OG1X, 24 h) was >100 µM, the Minimum inhibitory concentrations ([1]; ATCC27853, 24 h) was >100 µM and the Minimum inhibitory concentrations (S. aureus (ATCC6538); ATCC6538, 24 h) was <8 µM. For the same molecule, the “LC50, median (50%) cell death compared to untreated cells” value (Human erythrocytes) was >250^d µM.
CC(C)C[C@@H]1NC(=O)[C@H](CCCN)NC(=O)[C@H](C(C)C)NC(=O)[C@@H]2CCCN2C(=O)[C@@H](Cc2ccccc2)NC(=O)[C@H](CC(C)C)NC(=O)[C@H](CCCN)NC(=O)[C@H](C(C)C)NC(=O)[C@@H]2CCCN2C(=O)[C@@H](Cc2ccccc2)NC1=O [Gramicidin S] (cyclo(V[Orn]L[dF]PV[Orn]L[dF]P)) was tested, and the Minimum inhibitory concentrations (S. enterica (ATCC700720); [3]) was <10 µM, the Minimum inhibitory concentrations (B. subtilis (ATCC6633); ATCC6633, 24 h) was >40 µM and the Minimum inhibitory concentrations (E. coli (K12); K12, 24 h) was <20 µM. The Minimum inhibitory concentrations ([1]; ATCC27853, 24 h) was >40 µM, the Minimum inhibitory concentrations (S. aureus (ATCC6538); ATCC6538, 24 h) was <20 µM and the “LC50, median (50%) cell death compared to untreated cells” value (Human erythrocytes) was >20 µM.
In the case of CC[C@H](C)CCCCC(=O)N[C@@H](CCN)C(=O)N[C@H](C(=O)N[C@@H](CCN)C(=O)N[C@H]1CCNC(=O)[C@H]([C@@H](C)O)NC(=O)[C@H](CCN)NC(=O)[C@H](CCN)NC(=O)[C@H](CC(C)C)NC(=O)[C@@H](Cc2ccccc2)NC(=O)[C@H](CCN)NC1=O)[C@@H](C)O [Polymyxin B] (X2-[Dab]T[Dab][Dab][Dab][dF]L[Dab][Dab]T; lactam 4-C (inferred); N-terminus assumed), the Minimum inhibitory concentrations (S. enterica (ATCC700720); [3]) is reported as <1 µM, the Minimum inhibitory concentrations (B. subtilis (ATCC6633); B. subtilis (ATCC6633), Mueller Hinton broth, 0.5–1 × 10^6 CFU mL–1, 24 h at 37 °C, absorbance 600 nm, total peptide concentration, triplicates) is reported as 1.5 µM (≈ 1.81 µg/mL) and the Minimum inhibitory concentrations (E. coli (K12); E. coli (K12), Mueller Hinton broth, 0.5–1 × 10^6 CFU mL–1, 24 h at 37 °C, absorbance 600 nm, total peptide concentration, triplicates) is reported as <1 µM. For the same molecule, the Minimum inhibitory concentrations (E. faecalis (OG1X); E. faecalis (OG1X), Mueller Hinton broth, 0.5–1 × 10^6 CFU mL–1, 24 h at 37 °C, absorbance 600 nm, total peptide concentration, triplicates) was >100 µM, the Minimum inhibitory concentrations ([1]; P. aeruginosa (ATCC27853), Mueller Hinton broth, 0.5–1 × 10^6 CFU mL–1, 24 h at 37 °C, absorbance 600 nm, total peptide concentration, triplicates) was <1 µM and the Minimum inhibitory concentrations (S. aureus (ATCC6538); S. aureus (ATCC6538), Mueller Hinton broth, 0.5–1 × 10^6 CFU mL–1, 24 h at 37 °C, absorbance 600 nm, total peptide concentration, triplicates) was <50 µM. For the same molecule, the Minimum inhibitory concentrations ([2]; K. pneumoniae (NCTC 5055), Mueller Hinton broth, 0.5–1 × 10^6 CFU mL–1, 24 h at 37 °C, absorbance 600 nm, total peptide concentration, triplicates) was <1 µM.
In the case of “I: H-KIAKLKQKIQKLKAKIAKLKQ[βAla][βAla] / II: H-KIAKLKQKIQKLKAKIAKLKQ[βAla][βAla] / III: H-KIAKLKQKIQKLKAKIAKLKQ[βAla][βAla] (linker I:C-II:C-III:C via X1) [C 3 (+) strand]”, the Minimum inhibitory concentrations (S. enterica (ATCC700720); ATCC700720, 24 h) is reported as 3 µM, the Minimum inhibitory concentrations (B. subtilis (ATCC6633); ATCC6633, 24 h) is reported as 1.5 µM and the Minimum inhibitory concentrations (E. coli (K12); K12, 24 h) is reported as 1.5 µM. For the same molecule, the Minimum inhibitory concentrations (E. faecalis (OG1X); OG1X, 24 h) was 50 µM, the Minimum inhibitory concentrations ([1]; ATCC27853, 24 h) was 3 µM and the Minimum inhibitory concentrations (S. aureus (ATCC6538); ATCC6538, 24 h) was 50 µM. For the same molecule, the Minimum inhibitory concentrations ([2]; NCTC 5055, 24 h) was >12 µM.
